Results: patent US9663473B2 (Actelion Pharmaceuticals Ltd, priority 2013, dated 2017)

Biological target: T1, recombinant human ALX receptor (Homo sapiens, UniProt P25090)
T1 construct: expressed in transfected cells; host or cells: HEK293 (HEK293-hALXR-Gα16)
T1 sequence (P25090 1-351): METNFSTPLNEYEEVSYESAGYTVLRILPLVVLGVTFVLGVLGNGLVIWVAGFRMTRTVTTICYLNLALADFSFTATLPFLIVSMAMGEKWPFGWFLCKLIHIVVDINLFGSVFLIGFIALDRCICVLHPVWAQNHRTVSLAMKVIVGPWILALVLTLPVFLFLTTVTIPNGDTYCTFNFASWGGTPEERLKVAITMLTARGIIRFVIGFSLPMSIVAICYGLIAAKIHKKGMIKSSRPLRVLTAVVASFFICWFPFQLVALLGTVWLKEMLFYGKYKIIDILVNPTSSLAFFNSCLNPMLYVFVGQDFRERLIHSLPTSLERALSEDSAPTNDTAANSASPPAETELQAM
Assay: Intracellular calcium measurements (FLIPR), ALX receptor agonistic activity
Type: cell-based
Settings: HEK293-hALXR-Gα16 cells, Fluo-4 calcium signal, normalized to WKYMVm 10 nM
Protocol: The ALX receptor agonistic activity of the compounds of formula (I) is determined in accordance with the following experimental method.
Intracellular Calcium Measurements:
Cells expressing recombinant human ALX receptor and the G-protein Gα16 (HEK293-hALXR-Gα16) were grown to 80% confluency in Growing Medium (GM). Cells were detached from culture dishes with a cell dissociation buffer (Invitrogen, 13151-014), and collected by centrifugation at 1′000 rpm at rt for 5 min in Assay Buffer (AB) (equal parts of Hank's BSS (Gibco, 14065-049) and DMEM without Phenol Red (Gibco, 11880-028)). After 60 min incubation at 37° C. under 5% CO2 in AB supplemented with 1 μM Fluo-4 (AM) (Invitrogen, F14202) and 20 mM HEPES (Gibco, 15630-056), the cells were washed and resuspended in AB. They were then seeded onto 384-well FLIPR assay plates (Greiner, 781091) at 50′000 cells in 70 μl per well and sedimented by centrifugation at 1′000 rpm for 1 min. Stock solutions of test compounds were made up at a concentration of 10 mM in DMSO, and serially diluted in AB to concentrations required for activation dose response curves. WKYMVm (Phoenix Peptides) was used as a reference agonist. A FLIPR Tetra instrument (Molecular Devices) was operated according to the manufacturer's standard instructions, adding 4 μl of test compound dissolved at 10 mM in DMSO and diluted prior to the experiment in assay buffer to obtain the desired final concentration. Changes in fluorescence were monitored before and after the addition of test compounds at lex=488 nm and lem=540 nm. Emission peak values above base level after compounds addition were exported after base line subtraction. Values were normalized to high-level control (WKYMVm compound, 10 nM final concentration) after subtraction of the base line value (AB addition).

| EC50 [nM] | SMILES |
| --- | --- |
| 19 | COc1ccc(C[C@@H](NC(=O)N[C@H]2CC[C@@](C)(O)CC2)c2nc3ccccc3[nH]2)cc1 [Example 189, 1-((R)-1-(1H-Benzo[d]imidazol-2-yl)-2-(4-methoxyphenyl)ethyl)-3-(cis-4-hydroxy-4-methylcyclohexyl)urea] |
| 27 | COc1ccc(CC(NC(=O)NC2CCCC(O)C2)c2nc3ccccc3[nH]2)cc1 (stereo not shown) [Example 37, 1-(1-(1H-Benzo[d]imidazol-2-yl)-2-(4-methoxyphenyl)ethyl)-3-(3-hydroxycyclohexyl)urea] |
| 829 | COc1ccc(C[C@@H](NC(=O)N[C@H]2CNC[C@@H]2F)c2nc3ccccc3[nH]2)cc1 (relative stereo) [Example 184, 1-((R)-1-(1H-Benzo[d]imidazol-2-yl)-2-(4-methoxyphenyl)ethyl)-3-((3S*,4S*)-4-fluoropyrrolidin-3-yl)urea] |
| 50 | COc1ccc(C[C@@H](NC(=O)NCC(C)c2ccccc2)c2nc3ccccc3[nH]2)cc1 (stereo partly drawn) [Example 197, 1-((R)-1-(1H-Benzo[d]imidazol-2-yl)-2-(4-methoxyphenyl)ethyl)-3-(2-phenylpropyl)urea] |
| 450 | COc1ccc(CC(NC(=O)NCC(F)(F)F)c2nc3ccccc3[nH]2)cc1 (stereo not shown) [Example 9, 1-(1-(1H-Benzo[d]imidazol-2-yl)-2-(4-methoxyphenyl)ethyl)-3-(2,2,2-trifluoroethyl)urea] |
| 645 | COc1ccc(C[C@@H](NC(=O)NCCc2ccncc2)c2nc3ccccc3[nH]2)cc1 [Example 295, (R)-1-(1-(1H-Benzo[d]imidazol-2-yl)-2-(4-methoxyphenyl)ethyl)-3-(2-(pyridin-4-yl)ethyl)urea] |
| 40 | COc1ccc(C[C@@H](NC(=O)NC2CCN(CC(F)F)CC2)c2nc3ccccc3[nH]2)cc1 [Example 182, (R)-1-(1-(1H-Benzo[d]imidazol-2-yl)-2-(4-methoxyphenyl)ethyl)-3-(1-(2,2-difluoroethyl)piperidin-4-yl)urea] |
| 42 | COc1ccc(C[C@@H](NC(=O)N[C@H]2CCCC[C@H]2CO)c2nc3ccccc3[nH]2)cc1 (relative stereo) [Example 34, 1-((R)-1-(1H-Benzo[d]imidazol-2-yl)-2-(4-methoxyphenyl)ethyl)-3-((1 S*,2R*)-2-(hydroxymethyl)cyclohexyl)urea] |
| 570 | COc1ccc(C[C@@H](NC(=O)NCCO)c2nc3ccccc3[nH]2)cc1 [Example 94, (R)-1-(1-(1H-Benzo[d]imidazol-2-yl)-2-(4-methoxyphenyl)ethyl)-3-(2-hydroxyethyl)urea] |
| 13 | COc1ccc(CC(NC(=O)NC2CCC(CO)CC2)c2nc3ccccc3[nH]2)cc1 (stereo not shown) [Example 74, 1-(1-(1H-Benzo[d]imidazol-2-yl)-2-(4-methoxyphenyl)ethyl)-3-(4-(hydroxymethyl)cyclohexyl)urea] |
| 108 | COc1ccc(C[C@@H](NC(=O)NC2CCN(S(C)(=O)=O)CC2)c2nc3ccccc3[nH]2)cc1 [Example 143, (R)-1-(1-(1H-Benzo[d]imidazol-2-yl)-2-(4-methoxyphenyl)ethyl)-3-(1-(methylsulfonyl)piperidin-4-yl)urea] |
| 23 | COc1ccc(C[C@@H](NC(=O)NC2CCN(C3CCCCC3)CC2)c2nc3ccccc3[nH]2)cc1 [Example 90, (R)-1-(1-(1H-Benzo[d]imidazol-2-yl)-2-(4-methoxyphenyl)ethyl)-3-(1-cyclohexylpiperidin-4-yl)urea] |

Continued, compound first:

| SMILES | EC50 [nM] |
| --- | --- |
| COc1ccc(C[C@@H](NC(=O)NCc2ccccc2OCC(F)(F)F)c2nc3ccccc3[nH]2)cc1 [Example 219, (R)-1-(1-(1H-Benzo[d]imidazol-2-yl)-2-(4-methoxyphenyl)ethyl)-3-(2-(2,2,2-trifluoroethoxy)benzyl)urea] | 14 |
| O=C(NC(Cc1ccc(C(F)(F)F)cc1F)c1nc2ccccc2[nH]1)N[C@H]1CC[C@H](O)CC1 (relative stereo) [Example 240, 1-(1-(1H-Benzo[d]imidazol-2-yl)-2-(2-fluoro-4-(trifluoromethyl)phenyl)ethyl)-3-(trans-4-hydroxycyclohexyl)urea] | 12 |
| COc1ccc(C[C@@H](NC(=O)N[C@@H](C)c2ccccc2OC)c2nc3ccccc3[nH]2)cc1 [Example 326, 1-((R)-1-(1H-Benzo[d]imidazol-2-yl)-2-(4-methoxyphenyl)ethyl)-3-((S)-1-(2-methoxyphenyl)ethyl)urea] | 46 |
| COc1ccc(C[C@@H](NC(=O)NCCc2ccc(Cl)cc2)c2nc3ccccc3[nH]2)cc1 [Example 302, (R)-1-(1-(1H-Benzo[d]imidazol-2-yl)-2-(4-methoxyphenyl)ethyl)-3-(4-chlorophenethyl)urea] | 129 |
| CCOc1ccccc1CCNC(=O)N[C@H](Cc1ccc(OC)cc1)c1nc2ccccc2[nH]1 [Example 73, (R)-1-(1-(1H-Benzo[d]imidazol-2-yl)-2-(4-methoxyphenyl)ethyl)-3-(2-ethoxyphenethyl)urea] | 99 |
| COc1ccc(C[C@@H](NC(=O)N[C@H](C)c2ccc(Cl)cc2)c2nc3ccccc3[nH]2)cc1 [Example 329, 1-((R)-1-(1H-Benzo[d]imidazol-2-yl)-2-(4-methoxyphenyl)ethyl)-3-((R)-1-(4-chlorophenyl)ethyl)urea] | 285 |
| COc1cc(F)c(CC(NC(=O)N[C@H]2CC[C@H](O)CC2)c2nc3ccccc3[nH]2)cc1F (single isomer, unassigned; ent-1) [Example 356, 1-(1-(1H-Benzo[d]imidazol-2-yl)-2-(2,5-difluoro-4-methoxyphenyl)ethyl)-3-(trans-4-hydroxycyclohexyl)urea (ent-1)] | 5.5 |
| COc1ccc(C[C@@H](NC(=O)NC(C)c2cn3ccsc3n2)c2nc3ccccc3[nH]2)cc1 (stereo partly drawn) [Example 338, 1-((R)-1-(1H-Benzo[d]imidazol-2-yl)-2-(4-methoxyphenyl)ethyl)-3-(1-(imidazo[2,1-b]thiazol-6-yl)ethyl)urea] | 36 |
| COc1ccc(C[C@@H](NC(=O)NC2(c3ccc(C)cc3)CC2)c2nc3ccccc3[nH]2)cc1 [Example 277, (R)-1-(1-(1H-Benzo[d]imidazol-2-yl)-2-(4-methoxyphenyl)ethyl)-3-(1-(p-tolyl)cyclopropyl)urea] | 82 |
| COc1cc(F)c(CC(NC(=O)NC23CCC(O)(CC2)CC3)c2nc3ccccc3[nH]2)cc1F (stereo not shown) [Example 249, 1-(1-(1H-Benzo[d]imidazol-2-yl)-2-(2,5-difluoro-4-methoxyphenyl)ethyl)-3-(4-hydroxybicyclo[2.2.2]octan-1-yl)urea] | 4.2 |
| O=C(NC(Cc1ccc(Br)c(F)c1)c1nc2ccccc2[nH]1)NC12CCC(O)(CC1)CC2 (single isomer, unassigned; ent-1) [Example 258, 1-(1-(1H-Benzo[d]imidazol-2-yl)-2-(4-bromo-3-fluorophenyl)ethyl)-3-(4-hydroxybicyclo[2.2.2]octan-1-yl)urea (ent-1)] | 40 |
| COc1ccc(CC(NC(=O)NC23CCC(O)(CC2)CC3)c2nc3ccccc3[nH]2)cc1F (stereo not shown) [Example 193, 1-(1-(1H-Benzo[d]imidazol-2-yl)-2-(3-fluoro-4-methoxyphenyl)ethyl)-3-(4-hydroxybicyclo[2.2.2]octan-1-yl)urea] | 1.8 |
| COc1ccc(C[C@@H](NC(=O)NCc2ccccc2Cn2cncn2)c2nc3ccccc3[nH]2)cc1 [Example 31, (R)-1-(2-((1H-1,2,4-Triazol-1-yl)methyl)benzyl)-3-(1-(1H-benzo[d]imidazol-2-yl)-2-(4-methoxyphenyl)ethyl)urea] | 26 |
